According to patent US10130616B2, “Securinine and norsecurinine analogue compounds for the treatment of myeloid disorders” (Case Western Reserve University, priority 2013, dated 2018):
Where two headings read alike, the source gives them in different places.

Legend:
[1] = system: HL-60 cells; test: Growth of HL-60 cells (IC50); assay type: cell-based, human; details: value bracketed between tested concentrations, read-out: HL-60, IC50
[2] = system: MOLT3; test: Growth inhibition of MOLT3 cells; assay type: cell-based
Procedure: (§1) In certain embodiments, securinine and norsecurinine analogues were administered to cancerous cells, such as acute myeloblastic leukemia cells (e.g., MOLT3 and OCI-AML3) and growth inhibition was analyzed. The analogues were effective in inhibiting myeloid growth in addition to promoting differentiation, and provide for reduced proliferation of acute myeloblastic leukemia cells (Table 2).

[3] = system: OCI-AML3; test: Growth inhibition of OCI-AML3 cells; assay type: cell-based
Procedure: as §1

[4] = system: leukemic cells; details: cited from earlier work
[5] = system: HL-60 leukemic cells; details: HL-60 cells; from U.S. patent application Ser. No. 14/029,066; cited from earlier work
[6] = system: HL-60 leukemic cells; test: Nitroblue Tetrazolium (NBT) reduction assay, differentiation of HL-60 leukemic cells; assay type: cell-based, human
Description: In an aspect of the present disclosure, the compounds of the disclosure can be identified using a novel high-throughput screen that is biased to identify agents that have both a high potency and low toxicity in a myeloid disorder disease model, such as an animal or cell model. In some embodiments, the high-throughput screen measures the differentiation of HL-60 leukemic cells using a quantitative nitroblue tetrazolium (NBT) reduction assay. Screening HL-60 cells, human promyelocytic cells, is advantageous as they have been used extensively as a cell line to study myeloid differentiation. Though promyelocytic cells, HL-60 cells were derived from a patient with acute myeloblastic leukemia with maturation, FAB-M2.
This technique has also been widely exploited in HL-60 cells to analyze myelomonocytic differentiation.
The NBT screen works due to changes in the oxidoreductases during differentiation that lead to increases in rates of NBT reduction. NBT is reduced due to the production of superoxide that is catalyzed by an NADPH oxidase. […] NBT is reduced by superoxide from a soluble yellow compound to insoluble blue formazan granules whose formation can be monitored spectrophotometrically at 560 nm as the unreduced dye has minimal absorbance at this wavelength. A quantitative NBT reduction assay is ideal for this type of screen as it is simple, sensitive, quantitative, requires minimal cells, has been proven to have low well to well variability, and the amount of reduced NBT is proportional to the number of cells reducing the dye as well as the amount reduced by each cell.
To discover novel AML differentiation-inducing compounds a rapid high-throughput screen (HTS) was developed and optimized. The screen was designed to be biased to identify compounds that, unlike the majority of known differentiation-inducing agents, have both high potency and low toxicity. The screen measured the differentiation of HL-60 leukemic cells using a quantitative Nitroblue Tetrazolium (NBT) reduction assay, a test that is used extensively as a measure of functional myelomonocytic differentiation. The basis for the screen is unreduced NBT exists as a yellow soluble dye. Differentiated leukemic cells are capable of producing a respiratory burst that can reduce NBT into a blue insoluble compound that can be measured spectrophotometrically. This forward chemical genetics approach allowed the discovery of novel compounds that can act on targets not previously known to be “drugable.” As only live cells can reduce NBT, the screen is biased in identifying relatively nontoxic compounds.
To perform the screen, duplicate plates of HL-60 cells were cultured at a density of 5×10^4 cells/mL with 10 μM of each compound in 96 well plates for 5 days. To determine the relative capability for a compound to induce differentiation compared to known potent inducers, each plate destined for the NBT reduction assay included wells with 0.1% DMSO (vehicle control) and 1 μM ATRA. This approach eliminates any slight day to day variation in NBT reduction values and allows the discovery of compounds with similar or greater efficacy to ATRA. Differentiation was determined in the 96 well plates by incubating the cells with 1 mg/mL of NBT and 200 ng/mL of PMA as the stimulant for the respiratory burst for 35 minutes at 37° C. The reaction was then stopped with HCl and the formazan solubilized with DMSO. Finally, the reaction mixture was read spectrophotometrically at 560 nm in a plate reader.
The securinine and norsecurinine analogues were tested and evaluated on their abilities to affect differentiation and growth of HL-60 cells (Table 1).

[7] = system: CEBPβ; details: cited from earlier work
[8] = system: 60 cancer cell lines, normal human lymphocytes, normal human bone marrow, mouse embryonic fibroblasts, and human umbilical vein endothelial cells; details: 60 cancer cell lines and normal cells; cited from earlier work
[9] = system: p21; details: cited from earlier work
[10] = system: HL-60 cells; details: cited from earlier work
[11] = system: p44/p42 and p38; details: cited from earlier work
[12] = system: c-myc; details: cited from earlier work
[13] = system: cell cycle (G0/G1); details: cited from earlier work
[14] = system: CD14 and CD11b; details: flow cytometry; cited from earlier work
[15] = system: a variety of leukemic cell lines; details: cited from earlier work
[16] = Homo sapiens, HL-60, HL-60 cells
[17] = Homo sapiens, MOLT-3, MOLT3 cells, read-out: MOLT3 IC50
[18] = Homo sapiens, OCI-AML-3, OCI-AML3 cells, read-out: OCI-AML3 IC50
[19] = Homo sapiens, HL-60 cells, value bracketed between tested concentrations, read-out: HL-60, Dif50

Structure (SMILES)	IC50 [1, 16] [nM]	IC50 [2, 17] [nM]	IC50 [3, 18] [nM]	further results
CN(C)c1ccc(C#CC2=C[C@@H]3C[C@@]4(OC(=O)C=C24)[C@H]2CCCCN32)cc1 [Compound 36]	156 to 310	115	105	–
N#Cc1ccc(C#CC2=C[C@@H]3C[C@@]4(OC(=O)C=C24)[C@H]2CCCCN32)cc1 [Compound 46]	310 to 625	145	205	–
O=C1C=C2C(C#Cc3cc4ccccc4c4ccccc34)=C[C@@H]3C[C@@]2(O1)[C@H]1CCCCN31 [Compound 41]	–	–	–	IC50 ([2]; Homo sapiens, MOLT-3, read-out: MOLT3 IC50 (nM)): 150 nM; IC50 ([3]; Homo sapiens, OCI-AML-3, read-out: OCI-AML3 IC50 (nM)): 180 nM
N#CCCCC#CC1=C[C@@H]2C[C@@]3(OC(=O)C=C13)[C@H]1CCCCN21 [Compound 26]	–	160	195	–
O=C1C=C2C(C#Cc3ccsc3)=C[C@@H]3C[C@@]2(O1)[C@H]1CCCCN31 [Compound 31]	156 to 310	60	75	–
COc1ccc(C#CC2=C[C@@H]3C[C@@]4(OC(=O)C=C24)[C@H]2CCCCN32)cc1 [Compound 29]	39 to 78	60	80	–
O=C1C=C2C=C[C@@H]3C[C@@]2(O1)[C@H]1CCCCN31 [Securinine, (6S,11aR,11bS)-9,10,11,11a-tetrahydro-8H-6,11b-methanofuro[2,3-c]pyrido[1,2-a]azepin-2(6H)-one]	–	–	–	morphologic changes [4]: clear morphologic changes suggestive of monocytic differentiation; cells differentiated, NBT reduction assay [5]: ~95%; EC50 ([6]; Homo sapiens, HL-60, read-out: HL-60, Dif50): 10 to 15 µM; CEBPβ expression [7]: time-dependent upregulation; toxicity [8]: low toxicity; p21 protein [9]: upregulated; proliferation of HL-60 cells [10]: potently inhibits the proliferation of HL-60 cells; phosphorylation of p44/p42 and p38 [11]: induces rapid phosphorylation of p44/p42 and p38; c-myc expression [12]: potently downregulated; cell cycle distribution [13]: accumulation of cells in G0/G1; induction of cell surface markers CD14 and CD11b [14]: induce CD14 and CD11b; differentiation of leukemic cell lines [15]: can differentiate a variety of leukemic cell lines
CC1=C(/C=C/C(C)=C/C=C/C(C)=C/C(=O)O)C(C)(C)CCC1 [ATRA, all-trans-retinoic acid]	–	–	–	cells differentiated, NBT reduction assay [5]: ~95%; induction of cell surface markers CD14 and CD11b [14]: primarily induces CD11b
COc1cccc(C#CC2=C[C@@H]3C[C@@]4(OC(=O)C=C24)[C@H]2CCCCN32)c1 [Compound 47]	310 to 625	150	215	–
COc1ccc2cc(C#CC3=C[C@@H]4C[C@@]5(OC(=O)C=C35)[C@H]3CCCCN43)ccc2c1 [Compound 40]	–	90	105	–
O=C1C=C2C(C#Cc3ccsc3)=C[C@@H]3C[C@@]2(O1)[C@H]1CCCCN31 [INVS-MG-136-III]	–	–	–	IC50 ([1]; HL-60 cells): < 70 nM; IC50 ([2]; MOLT3 cells, read-out: MOLT3 IC50): 100 nM; IC50 ([3]; OCI-AML3 cells, read-out: OCI-AML3 IC50): 115 nM
CCCN(CC#CC1=C[C@@H]2C[C@@]3(OC(=O)C=C13)[C@H]1CCCCN21)CCC [Compound 39]	–	80	70	–
O=C1C=C2C(C#Cc3ccc(OC(F)(F)F)cc3)=C[C@@H]3C[C@@]2(O1)[C@H]1CCCCN31 [Compound 48]	310 to 625	> 300	> 300	–
O=C1C=C2C(C#Cc3ccccc3)=C[C@@H]3C[C@@]2(O1)[C@H]1CCCCN31 [Compound 17]	70 to 156	70	80	–
CCOC#CC1=C[C@@H]2C[C@@]3(OC(=O)C=C13)[C@H]1CCCCN21 [Compound 22]	310 to 625	196	220	–
O=C1C=C2CC(NC3CC(O)C3)[C@@H]3C[C@@]2(O1)[C@H]1CCCCN31 (stereo partly shown) [Compound 85]	–	–	–	EC50 [6, 19]: 10 to 15 µM
C[N+]12CCCC[C@@H]1[C@]13C[C@H]2C=CC1=CC(=O)O3 (stereo partly shown) [Sec-1]	–	–	–	EC50 ([6]; HL-60 cells, value bracketed between tested concentrations, read-out: HL-60, Dif50): > 30 µM
C=C1CC[C@H](O)C/C1=C/C=C1\CCC[C@]2(C)[C@@H]([C@H](C)CCCC(C)C)CC[C@@H]12 [vitamin D3]	–	–	–	induction of cell surface markers CD14 and CD11b [14]: induce CD14 and CD11b
O=C1C=C2CC(SCc3cccs3)[C@@H]3C[C@@]2(O1)[C@H]1CCCCN31 (stereo partly shown) [Compound 69]	–	–	–	EC50 [6, 19]: 20 to 30 µM
O=C1C=C2CC(NC3CC3)[C@@H]3C[C@@]2(O1)[C@H]1CCCCN31 (stereo partly shown) [Compound 80]	–	–	–	EC50 [6, 19]: 20 to 30 µM
O=C1C=C2CC(NC3CCCCC3)[C@@H]3C[C@@]2(O1)[C@H]1CCCCN31 (stereo partly shown) [Compound 82]	–	–	–	EC50 [6, 19]: 15 to 20 µM
Nc1ccc(C#CC2=C[C@@H]3C[C@@]4(OC(=O)C=C24)[C@H]2CCCCN32)cc1 [Compound 53]	–	–	–	EC50 [6, 19]: 0.156 to 0.31 µM
C=C(C)CC#CC1=C[C@@H]2C[C@@]3(OC(=O)C=C13)[C@H]1CCCCN21 [Compound 28]	156 to 310	165	200	–
CCN(CC)CC#CC1=C[C@@H]2C[C@@]3(OC(=O)C=C13)[C@H]1CCCCN21 [Compound 35]	–	130	110	–
CN(C)CC#CC1=C[C@@H]2C[C@@]3(OC(=O)C=C13)[C@H]1CCCCN21 [Compound 18]	70 to 156	70	90	–
